# Measurements from US20110224136A1, “INHIBITORS OF DIACYLGLYCEROL ACYLTRANSFERASE” (priority 2008, published 2011).
# Target: T1, human DGAT1 enzyme (Homo sapiens, UniProt O75907)
# T1 construct: made in house; host or cells: Sf9 insect cells (microsomes)
# T1 sequence (O75907 1-488): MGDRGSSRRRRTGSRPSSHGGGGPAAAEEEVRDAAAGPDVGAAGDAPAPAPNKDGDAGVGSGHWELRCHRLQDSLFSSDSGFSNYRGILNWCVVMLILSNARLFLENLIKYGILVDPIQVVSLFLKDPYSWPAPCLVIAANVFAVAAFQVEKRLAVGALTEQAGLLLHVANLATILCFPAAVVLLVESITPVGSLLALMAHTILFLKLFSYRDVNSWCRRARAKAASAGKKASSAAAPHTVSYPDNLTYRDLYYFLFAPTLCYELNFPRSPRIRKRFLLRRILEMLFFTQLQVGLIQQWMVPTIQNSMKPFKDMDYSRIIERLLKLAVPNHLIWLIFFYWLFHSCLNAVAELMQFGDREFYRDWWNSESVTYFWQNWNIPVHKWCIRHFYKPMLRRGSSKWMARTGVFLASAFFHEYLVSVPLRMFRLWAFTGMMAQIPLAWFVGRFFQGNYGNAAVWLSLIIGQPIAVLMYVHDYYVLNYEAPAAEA
# Experiment: in vitro DGAT1 inhibition assay (microsomes, [14C]-palmitoyl-CoA, scintillation proximity)
# Type: biochemical
# Details: human DGAT1 expressed in Sf9 insect cell microsomes; 2 hours at room temperature; read-out: hDGAT IC50
# Description: A useful assay to determine the DGAT inhibitory activity of the inventive compounds is described below:
# The in vitro assay to identify DGAT1 inhibitors uses human DGAT1 enzyme expressed in Sf9 insect cells prepared as microsomes. The reaction is initiated by the addition of the combined substrates 1,2-dioleoyl-sn-glycerol and [^14C]-palmitoyl-CoA and incubated with test compounds and microsomal membranes for 2 hours at room temperature. The assay is stopped by adding 0.5 mg wheat germ agglutinin beads in assay buffer with 1% Brij-35 and 1% 3-cholamidopropyldimethyl-ammonio-1-propane sulfonate. Plates are sealed with TopSeal and incubated for 18 hours to allow the radioactive triglyceride product to come into proximity with the bead. Plates are read on a TopCount instrument.
# Percent inhibition was calculated as the percent of (test compound inhibition minus non-specific binding) relative to (total binding minus non-specific binding). IC50 values were determined by curve fitting the data to a Sigmoidal dose-response in GraphPad Prism utilizing the following equation:
# Y=A+(B−A)/(1+10̂((Log IC50−X))),
# where A and B are the bottom and top of the curve (highest and lowest inhibition), respectively, and X is the logarithm of concentration.
row,SMILES,IC50
1,"O=C(O)C[C@H]1CC[C@H](c2ccc(NC(=O)c3oc(N4CCC(c5ccccc5)CC4)nc3C(F)(F)F)cc2)CC1 [Compound 216, 2-((1r,4r)-4-(4-(2-(4-phenylpiperidin-1-yl)-4-(trifluoromethyl)oxazole-5-carboxamido)phenyl)cyclohexyl)acetic acid]",101 to 500 nM
2,"CN(c1ncc(C(=O)Nc2ccc(N3CCN(C(=O)Nc4ccccc4F)CC3)nc2)c(C(F)(F)F)n1)C1CCCC1 [Compound 220, 2-(cyclopentyl(methyl)amino)-N-(6-(4-(2-fluorophenylcarbamoyl)piperazin-1-yl)pyridin-3-yl)-4-(trifluoromethyl)pyrimidine-5-carboxamide]",101 to 500 nM
3,"CC1CCCN(c2nc(C(F)(F)F)c(C(=O)Nc3ccc(-c4ccc(C(=O)O)nc4)cc3)o2)C1 (stereo not shown) [Compound 229, 5-(4-(2-(3-methylpiperidin-1-yl)-4-(trifluoromethyl)oxazole-5-carboxamido)phenyl)picolinic acid]",101 to 500 nM
4,"CN(Cc1nc(C(F)(F)F)c(C(=O)Nc2ccc(N3CCN(C(=O)Nc4ccccc4F)CC3)nc2)s1)c1ccccc1 [Compound 247, N-(6-(4-(2-fluorophenylcarbamoyl)piperazin-1-yl)pyridin-3-yl)-2-((methyl(phenyl)amino)methyl)-4-(trifluoromethyl)thiazole-5-carboxamide]",101 to 500 nM
5,"Cc1ccccc1NC(=O)c1ccc(-c2ccc(NC(=O)c3sc(CN(C)c4ccccc4)nc3C(F)(F)F)nc2)cc1 [Compound 250, 2-((methyl(phenyl)amino)methyl)-N-(5-(4-(o-tolylcarbamoyl)phenyl)pyridin-2-yl)-4-(trifluoromethyl)thiazole-5-carboxamide]",101 to 500 nM
6,"CC1CCCN(c2nc(C(F)(F)F)c(C(=O)Nc3ccc(-c4ccc(C(=O)N5CCC(C(=O)O)CC5)cn4)cc3)o2)C1 (stereo not shown) [Compound 251, 1-(6-(4-(2-(3-methylpiperidin-1-yl)-4-(trifluoromethyl)oxazole-5-carboxamido)phenyl)nicotinoyl)piperidine-4-carboxylic acid]",101 to 500 nM
7,"O=C(Nc1ccc(N2CCN(C(=O)Nc3ccccc3F)CC2)nc1)c1sc(COc2ccccc2)nc1C(F)(F)F [Compound 252, N-(6-(4-(2-fluorophenylcarbamoyl)piperazin-1-yl)pyridin-3-yl)-2-(phenoxymethyl)-4-(trifluoromethyl)thiazole-5-carboxamide]",101 to 500 nM
8,"O=C(Nc1ccc(N[C@H]2CCN(C(=O)Nc3ccccc3F)C2)nc1)c1oc(N2CCC(c3ccccc3)CC2)nc1C(F)(F)F [Compound 257, (S)—N-(6-(1-(2-fluorophenylcarbamoyl)pyrrolidin-3-ylamino)pyridin-3-yl)-2-(4-phenylpiperidin-1-yl)-4-(trifluoromethyl)oxazole-5-carboxamide]",101 to 500 nM
9,"O=C(Nc1ccc(N[C@H]2CCN(C(=O)Nc3ccccc3F)C2)nc1)c1sc(N2CCC(c3ccccc3)CC2)nc1C(F)(F)F [Compound 259, (S)—N-(6-(1-(2-fluorophenylcarbamoyl)pyrrolidin-3-ylamino)pyridin-3-yl)-2-(4-phenylpiperidin-1-yl)-4-(trifluoromethyl)thiazole-5-carboxamide]",101 to 500 nM
10,"CC1CCCN(c2nc(C(F)(F)F)c(C(=O)Nc3ccc(N[C@H]4CCN(C(=O)c5ccccc5F)C4)nc3)o2)C1 (stereo partly drawn) [Compound 260, N-(6-((S)-1-(2-fluorobenzoyl)pyrrolidin-3-ylamino)pyridin-3-yl)-2-(3-methylpiperidin-1-yl)-4-(trifluoromethyl)oxazole-5-carboxamide]",101 to 500 nM
11,"O=C(Nc1ccc(N2CCN(C(=O)Nc3ccccc3F)CC2)nc1)c1oc(N2CCC(c3ccc(Cl)cc3)CC2)nc1C(F)(F)F [Compound 273, 2-(4-(4-chlorophenyl)piperidin-1-yl)-N-(6-(4-(2-fluorophenylcarbamoyl)piperazin-1-yl)pyridin-3-yl)-4-(trifluoromethyl)oxazole-5-carboxamide]",11 to 100 nM
12,"O=C(Nc1ccc(N2CCN(C(=O)Nc3ccccc3F)CC2)nc1)c1oc(N2CCC(c3cccc(F)c3)C2)nc1C(F)(F)F (stereo not shown) [Compound 279, 2-(3-(3-fluorophenyl)pyrrolidin-1-yl)-N-(6-(4-(2-fluorophenylcarbamoyl)piperazin-1-yl)pyridin-3-yl)-4-(trifluoromethyl)oxazole-5-carboxamide]",11 to 100 nM
13,"O=C(Nc1ccc(N2CCN(C(=O)c3ccccc3F)CC2)nc1)c1oc(N2CCC(c3ccccc3)CC2)nc1C(F)(F)F [Compound 284, N-(6-(4-(2-fluorobenzoyl)piperazin-1-yl)pyridin-3-yl)-2-(4-phenylpiperidin-1-yl)-4-(trifluoromethyl)oxazole-5-carboxamide]",101 to 500 nM
14,"O=C(CN1CCN(c2ccc(NC(=O)c3oc(N4CCC(c5ccccc5)CC4)nc3C(F)(F)F)cn2)CC1)c1ccccc1F [Compound 289, N-(6-(4-(2-(2-fluorophenyl)-2-oxoethyl)piperazin-1-yl)pyridin-3-yl)-2-(4-phenylpiperidin-1-yl)-4-(trifluoromethyl)oxazole-5-carboxamide]",101 to 500 nM
15,"O=C(O)c1ccccc1NC(=O)N1CCN(c2ccc(NC(=O)c3oc(N4CCC(c5ccccc5)CC4)nc3C(F)(F)F)cn2)CC1 [Compound 292, 2-(4-(5-(2-(4-phenylpiperidin-1-yl)-4-(trifluoromethyl)oxazole-5-carboxamido)pyridin-2-yl)piperazine-1-carboxamido)benzoic acid]",11 to 100 nM
16,"O=C(Nc1ccc(N2CCN(C(=O)[C@H]3CC[C@H](C(=O)O)CC3)CC2)nc1)c1oc(N2CCC(c3ccccc3)CC2)nc1C(F)(F)F [Compound 296, trans-4-(4-(5-(2-(4-phenylpiperidin-1-yl)-4-(trifluoromethyl)oxazole-5-carboxamido)pyridin-2-yl)piperazine-1-carbonyl)cyclohexanecarboxylic acid]",11 to 100 nM
17,"CC1CCCN(c2nc(C(F)(F)F)c(C(=O)Nc3ccc(N4CCN(C(=O)Nc5ccccc5C(=O)O)CC4)nc3)o2)C1 (stereo not shown) [Compound 300, 2-(4-(5-(2-(3-methylpiperidin-1-yl)-4-(trifluoromethyl)oxazole-5-carboxamido)pyridin-2-yl)piperazine-1-carboxamido)benzoic acid]",11 to 100 nM

# More lines, now with the values ahead:
row,IC50,SMILES
1,11 to 100 nM,"Cc1ccccc1NC(=O)c1ccc(-c2ccc(NC(=O)c3oc(N4CCCC(C)C4)nc3C(F)(F)F)nc2)cc1 (stereo not shown) [Compound 227, 2-(3-methylpiperidin-1-yl)-N-(5-(4-(o-tolylcarbamoyl)phenyl)pyridin-2-yl)-4-(trifluoromethyl)oxazole-5-carboxamide]"
2,11 to 100 nM,"Cc1ccccc1NC(=O)c1ccc(-c2ccc(NC(=O)c3oc(N4CCCC(C)C4)nc3C(F)(F)F)cc2)cn1 (stereo not shown) [Compound 232, 2-(3-methylpiperidin-1-yl)-N-(4-(6-(o-tolylcarbamoyl)pyridin-3-yl)phenyl)-4-(trifluoromethyl)oxazole-5-carboxamide]"
3,11 to 100 nM,"CC1CCCN(c2nc(C(F)(F)F)c(C(=O)Nc3ccc(N4CCN(C(=O)Nc5ccccc5F)CC4)cn3)o2)C1 (stereo not shown) [Compound 236, N-(5-(4-(2-fluorophenylcarbamoyl)piperazin-1-yl)pyridin-2-yl)-2-(3-methylpiperidin-1-yl)-4-(trifluoromethyl)oxazole-5-carboxamide]"
4,11 to 100 nM,"Cc1ccccc1NC(=O)c1ccc(-c2ccc(NC(=O)c3oc(N4CCCC(C)C4)nc3C(F)(F)F)cc2)nc1 (stereo not shown) [Compound 242, 2-(3-methylpiperidin-1-yl)-N-(4-(5-(o-tolylcarbamoyl)pyridin-2-yl)phenyl)-4-(trifluoromethyl)oxazole-5-carboxamide]"
5,11 to 100 nM,"O=C(Nc1ccc(N2CCN(C(=O)Nc3ccccc3F)CC2)nc1)c1sc(CSc2ccccc2)nc1C(F)(F)F [Compound 253, N-(6-(4-(2-fluorophenylcarbamoyl)piperazin-1-yl)pyridin-3-yl)-2-(phenylthiomethyl)-4-(trifluoromethyl)thiazole-5-carboxamide]"
6,11 to 100 nM,"CC1CCCN(c2nc(C(F)(F)F)c(C(=O)Nc3ccc(O[C@@H]4CCN(C(=O)Nc5ccccc5F)C4)nc3)o2)C1 (stereo partly drawn) [Compound 263, N-(6-((R)-1-(2-fluorophenylcarbamoyl)pyrrolidin-3-yloxy)pyridin-3-yl)-2-(3-methylpiperidin-1-yl)-4-(trifluoromethyl)oxazole-5-carboxamide]"
7,11 to 100 nM,C[C@@H]1CN(c2ccc(NC(=O)c3oc(N4CCC(c5ccccc5)CC4)nc3C(F)(F)F)cn2)CCN1C(=O)Nc1ccccc1F [Compound 266]
8,11 to 100 nM,"O=C(Nc1ccc(N2CCN(C(=O)Nc3ccccc3F)CC2)nc1)c1oc(N2CC[C@H](c3ccccc3)C2)nc1C(F)(F)F [Compound 270, (R)—N-(6-(4-(2-fluorophenylcarbamoyl)piperazin-1-yl)pyridin-3-yl)-2-(3-phenylpyrrolidin-1-yl)-4-(trifluoromethyl)oxazole-5-carboxamide]"
